The text below walks through data of ChEMBL document CHEMBL4842396, “Synthesis of 2-Prenylated Alkoxylated Benzopyrans by Horner-Wadsworth-Emmons Olefination with PPARα/γ Agonist Activity” (ACS Med Chem Lett, 2021).

Activity calls are given as the source filed them. The calls are words filed in the database; no cut-off is given here.

The target in assay [1] is T1, Peroxisome proliferator-activated receptor alpha (Homo sapiens) (UniProt Q07869).
T1 sequence (whole entry): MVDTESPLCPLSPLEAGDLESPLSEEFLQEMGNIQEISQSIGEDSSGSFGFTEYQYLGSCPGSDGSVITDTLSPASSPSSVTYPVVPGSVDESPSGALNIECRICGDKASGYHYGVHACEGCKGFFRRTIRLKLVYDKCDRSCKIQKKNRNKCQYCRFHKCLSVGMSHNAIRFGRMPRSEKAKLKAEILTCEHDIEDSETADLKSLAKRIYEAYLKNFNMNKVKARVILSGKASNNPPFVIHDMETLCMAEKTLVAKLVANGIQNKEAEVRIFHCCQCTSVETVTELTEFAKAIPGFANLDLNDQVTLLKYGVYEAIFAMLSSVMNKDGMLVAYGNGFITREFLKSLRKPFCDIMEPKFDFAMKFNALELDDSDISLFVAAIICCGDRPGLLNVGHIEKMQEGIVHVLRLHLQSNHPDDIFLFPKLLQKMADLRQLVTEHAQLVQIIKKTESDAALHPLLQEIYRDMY
Kind of assay: Agonist activity at human PPARalpha at 10 uM. The note with it: filed as agonist.

The target in assay [2] is T2, Peroxisome proliferator-activated receptor gamma (Homo sapiens) (UniProt P37231).
T2 sequence (whole entry): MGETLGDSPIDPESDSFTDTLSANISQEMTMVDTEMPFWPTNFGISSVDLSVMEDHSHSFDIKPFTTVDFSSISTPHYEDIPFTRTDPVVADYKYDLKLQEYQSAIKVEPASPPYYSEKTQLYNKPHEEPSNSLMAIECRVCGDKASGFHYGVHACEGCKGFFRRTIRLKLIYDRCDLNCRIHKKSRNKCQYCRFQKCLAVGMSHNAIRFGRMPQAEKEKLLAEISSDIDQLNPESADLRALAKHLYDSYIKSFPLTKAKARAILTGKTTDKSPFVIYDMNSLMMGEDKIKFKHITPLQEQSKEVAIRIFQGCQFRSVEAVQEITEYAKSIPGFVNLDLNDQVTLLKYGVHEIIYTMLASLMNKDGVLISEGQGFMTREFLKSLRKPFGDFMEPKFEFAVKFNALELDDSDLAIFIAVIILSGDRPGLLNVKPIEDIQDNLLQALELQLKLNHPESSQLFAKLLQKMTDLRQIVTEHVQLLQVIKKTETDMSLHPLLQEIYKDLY
The assay can be described thus: Agonist activity at human PPARgamma at 10 uM. The note with it: filed as agonist.

The species named for another assay is Homo sapiens. The assay can be described thus: Selectivity for agonist activity at human PPARalpha over agonist activity at human PPARgamma.

Regarding `CCCOc1ccc2c(c1)CCC(C)(CC/C=C(\C)CC/C=C(\OCC)C(=O)OCC)O2` (configuration not stated), the outcome in assay [1] and in assay [2] was Active.

In the case of `Cc1cccc(Nc2cc(Cl)nc(SCC(=O)O)n2)c1C`, in assay [1], the outcome was Active.

For `CCOC(=O)/C(=C/CC/C(C)=C/CCC1(C)CCc2cc(OCc3ccccc3)ccc2O1)OCC` (configuration not stated), the outcome in assay [1] and in assay [2] was Active.

Turning to `CCOC(=O)/C(=C/CC/C(C)=C/CCC1(C)CCc2cc(OCc3ccccc3)ccc2O1)OCC(F)(F)F` (configuration not stated), the outcome in assay [1] and in assay [2] was Active.

For the molecule `CC1(CC/C=C(\OCC(F)(F)F)C(=O)O)CCc2cc(OCc3ccccc3)ccc2O1` (configuration not stated), the result in assay [1] and in assay [2] was Active. In addition, in the assay filed under Homo sapiens, the Selectivity ratio worked out at 1.73.

Consider `CCO/C(=C\CC/C(C)=C/CCC1(C)CCc2cc(OCc3ccccc3)ccc2O1)C(=O)O` (configuration not stated), for which the result in assay [1] and in assay [2] was Active. Moreover, the Selectivity ratio in the assay filed under Homo sapiens worked out at 0.64.

For the molecule `CCOC(=O)/C(=C/CC/C(C)=C/CCC1(C)CCc2cc(OCc3ccc(F)cc3)ccc2O1)OCC` (configuration not stated), the outcome in assay [1] and in assay [2] was Active.

Regarding `CCOC(=O)/C(=C/CCC1(C)CCc2cc(OCc3ccccc3)ccc2O1)OCC(F)(F)F` (configuration not stated), the result in assay [1] and in assay [2] was Active.
